Legend:
[1] = molecular target: T1, Enterobacter cloacae P99 β-lactamase (Enterobacter cloacae, UniProt P05364); experiment: Inhibition of P99 β-lactamase, nitrocefin assay (IC50); assay type: biochemical; conditions: nitrocefin substrate, 20 mM MOPS pH 7.50
T1 construct: purchased Porton Down, Wiltshire, U.K
Protocol: The enzyme (Enterobacter cloacae P99 β-lactamase) was dissolved to a concentration of 1 mg/mL in 20 mM MOPS buffer at pH 7.50, and then diluted 200-fold in the same buffer containing 0.1% BSA. The commercially available substrate nitrocefin was added as a 100 μM stock solution in 20 mM MOPS buffer, and inhibitors were also added as solutions in MOPS buffer. In a typical assay the following amounts were used: 300 μL of nitrocefin, 10 μL of P99 β-lactamase, x μL of inhibitor, and […] of MOPS buffer. Enzyme activity was measured at 25 EC, and the reaction was monitored spectrophotometrically at 482 nm. IC50 values were determined from the dose-response plots of the initial reaction rate vs. inhibitor concentration.

[2] = molecular target: T1, Enterobacter cloacae P99 β-lactamase; assay type: biochemical; conditions: values in parentheses, second order rate constant for inhibition
Protocol: To evaluate the inhibitors and the methods of the invention, representative inhibitors preparations were tested using class A (TEM-2 plasmid TEM)) β-lactamase and class C (Enterobacter cloacae P99 β-lactamase) β-lactamases (Porton Down, Wiltshire, U.K.) as well as representative DD-peptidases/carboxydases (e.g., Streptomyces R61 DD-peptidases) as the assayed enzyme.
Steady state kinetic parameters were directly obtained for representative inhibitors with the P99 β-lactamase with TEM β-lactamase by standard methods (e.g., Wilkinson, Biochem J. 80:324–332 (1989)) from spectrophotometric initial velocity measurements. Kinetic parameters were also obtained for DD-peptidase as the assayed enzyme, according to standard methods using hyppuryl-DL-phenyl-lactate (a known DD-peptidase substrate) (e.g. Govardhan and Pratt, Biochemistry 26:3385–3395 (1987)). The concentration of stock enzyme solutions were determined spectrophotometrically (e.g., Xu, et al., Biochemistry 35:[…] (1996)).
Representative class C and a class A β-lactamases were inhibited by representative inhibitors of Formulae I and II in a time-dependent fashion as described by the relation:
Representative inhibitors of the invention having Formula I may act by forming a covalent bond between β-lactamases and the inhibitor (i.e., irreversible inhibition). This type of inhibition is therefore time dependent. It is distinguished from reversible inhibition in so far that the backward reaction is extremely slow. […] Thus, irreversible inhibition is measured by how fast the event takes place (rate constant ki). Thus, inhibitory efficiency is expressed by large ki values.
Representative inhibitors of Formula I may also act by forming a transient acyl-enzyme intermediate. Inhibition results from a slow turn over, (de-acylation) of the intermediate.
In Table 3, kcat/km values are presented in plain text, with ki values for representative inhibitors appearing in parentheses. […]

Staph. Aureaus = experiment: Microbiological testing: potentiation of β-lactam antibiotic; assay type: cell-based; conditions: Piperacillin, compound at 100 μg/mL
Excerpt: (§1) To test the inhibitors of the invention, a wide range of organisms are used to assess compounds according to the invention; both as antibiotics and as β-Lactamase inhibitors: Initial screening for antibiotic activity utilizes penicillin sensitive S. aureus [ATTC# 25923], ampicillin sensitive H. influenzae [ATCC#10211] and clinical laboratory isolates of ampicillin sensitive E. faecalis and H. influenzae, and non-resistant P. aeruginosa. Initial studies utilize, in microtiter wells, 1 microgram of compound in 10 microliters diluted stock solution, 41,100 CFU of bacteria in 10 microliters broth solution and 80 microliters CAMHB. The count verification well contains 10 microliters CAMHB in place of the test compound. […] Microbiological and enzymatic testing is carried on duplicate plates with negative control plates.
(§2) Compounds were tested at a concentration of 100 μg/mL.
(§3) In Table 5, the microorganism tested against is shown in italics, while the antibiotic agent used is shown in plain text. […] When determined, the number in parentheses indicates the fold reduction in the MIC of the antibiotic agent when measured in the presence of the inhibitor of the invention.

[3] = Spontaneous hydrolysis in neutral aqueous solution; assay type: physicochemical; conditions: for spontaneous hydrolysis, in words: neutral aqueous solution, relative to most compounds of the invention
Protocol: The cyclic phosphoryl chloride (500 mg; 2.3 mmol) was suspended in 60 mL of anhydrous acetonitrile (Aldrich, Sure/Seal) and water (41 μL, 2.3 mmol) added with magnetic stirring. The mixture was then gently warmed until the crystals of the starting material disappeared (ca. 5 min.). Two molar equivalents of redistilled dicyclohexylamine (913 μL) were then added. The immediately precipitating solid ([…]) was removed by vacuum filtration and the remaining solvent by rotary evaporation.

Ent. Cloacae = experiment: Microbiological testing: potentiation of β-lactam antibiotic; assay type: cell-based; conditions: compound at 100 μg/mL
Excerpt: as §1, §2, §3

Haemophilus Influenzae = experiment: as above; assay type: cell-based; conditions: Ticarcillin, compound at 100 μg/mL
Excerpt: as §1, §2, §3

[4] = molecular target: TEM-2 plasmid (TEM) β-lactamase (Escherichia coli, UniProt P62593, Q37K); assay type: biochemical; conditions: values in parentheses

| SMILES | ki [2] | further results |
| --- | --- | --- |
| O=C(OP(=O)(O)Oc1cccc2ccccc12)c1ccccc1 [Compound XII] |  | IC50 [1]: 8 µM |
| O=C(OP(=O)(O)c1cccc([N+](=O)[O-])c1)c1ccccc1 [Compound XIX] | 0.0179(65 ± 19) s^−1 M^−1 |  |
| O=C(OP(=O)(O)Oc1ccc([N+](=O)[O-])cc1)c1ccccc1 [Compound XI] | ≤ 2 s⁻¹ M⁻¹ | IC50 [1]: 39 µM |
| O=C(OP(=O)(O)c1ccc([N+](=O)[O-])cc1)c1ccccc1 [Compound XVIII] | 0.0125(25 ± 3) s^−1 M^−1 |  |
| CCCCCCOP(=O)(O)OC(=O)c1ccccc1 [Compound XVII] | 0.125(≦1) s^−1 M^−1 |  |
| O=C1C=C(c2ccccc2)OP(=O)(O)O1 [Compound XVI] |  | fold reduction in the MIC of the antibiotic agent (Staph. Aureaus): 2 fold |
| CCCCCCP(=O)(O)OC(=O)c1ccccc1 [Compound XXII] | 0.0226(11.1 ± 0.1) s^−1 M^−1 |  |
| COc1ccccc1C(=O)OP(=O)(O)Oc1ccccc1 [Compound XXIX] | 3.6 ± 0.4 s⁻¹ M⁻¹ |  |
| O=C(OP(=O)(O)c1ccc(-c2ccccc2)cc1)c1ccccc1 [Compound XXI] | 0.117(89 ± 4) s^−1 M^−1 |  |
| Cc1cccc(C)c1C(=O)OP(=O)(O)Oc1ccccc1 [Compound XXVIII] | (20.9 ± 1.5) s^−1 M^−1 |  |
| O=C(OP(=O)(O)Oc1ccccc1)c1ccc(-c2ccccc2)cc1 [Compound XXVII] | ≤ 3 s⁻¹ M⁻¹ |  |
| O=C(OP(=O)(O)Oc1ccccc1)c1cc2ccccc2s1 [Compound XXVI] | ≤ 5 s⁻¹ M⁻¹ |  |
| O=C(/C=C/c1ccccc1)OP(=O)(O)Oc1ccccc1 [Compound XXV] | ≤ 1 s⁻¹ M⁻¹ |  |
| O=C(OP(=O)(O)Oc1ccc2ccccc2c1)c1ccccc1 [Compound XXXI] | ≤ 1 s⁻¹ M⁻¹ |  |
| O=C(OP(=O)(O)Oc1ccc2ccccc2c1)c1cc2ccccc2s1 [Compound XXX] | 1813 ± 3 s⁻¹ M⁻¹ |  |
| O=C(OP(=O)(O)c1ccc2ccccc2c1)c1ccccc1 [Compound XX] | 0.0551(115 ± 5) s^−1 M^−1 |  |
| O=C(Cc1ccccc1)OP(=O)(O)Oc1ccccc1 [Compound X] | ≤ 0.04 s⁻¹ M⁻¹ | spontaneous hydrolysis, in words [3]: shorter half-lives; IC50 [1]: 30 µM |
| O=C1OP(=O)(O)Oc2ccccc21 [V, 1-hydroxy-4,5-benz-2.6-dioxaphosphorinanone-(3)-1-oxide] |  | rate of hydrolysis kobs ([3]; 20 mM MOPS, pH 7.5, 25° C.): 1.7e-05 s⁻¹ |
| COP(=O)(O)OC(=O)c1ccccc1 [VIII] |  | fold reduction in the MIC of the antibiotic agent (Ent. Cloacae; Cefoxitin): 2 fold; fold reduction in the MIC of the antibiotic agent (Ent. Cloacae; Ceftriaxone): 2 fold; fold reduction in the MIC of the antibiotic agent (Haemophilus Influenzae): 0 fold |
| O=C(OP(=O)(O)Oc1ccccc1)c1ccccc1 [XIII, sodium benzoyl phenyl phosphate] |  | ki [4]: 0.001(0.2) s^−1 M^−1 |
| O=C(OP(=O)(O)OC(=O)c1ccccc1)c1ccccc1 [XIV, sodium dibenzoyl phosphate] |  | ki [4]: 0.120(14.3) s^−1 M^−1 |
| O=C(NCP(=O)(O)OC(=O)c1ccccc1)OCc1ccccc1 [XXXIII] | (5.9 ± 0.3 × 10^4) s^−1 M^−1 | ki [4]: (130 ± 8) s^−1 M^−1; spontaneous hydrolysis, in words [3]: more rapidly hydrolyzed |
| O=C(Cc1ccccc1)NCC(=O)OP(=O)(O)Oc1ccccc1 [XXXII] |  | spontaneous hydrolysis, in words [3]: more rapidly hydrolyzed |

From patent publication US7205285B2, “Acyl phosphonate inhibitors of β-lactamases” (Methylgene, Inc., priority 1997, dated 2007)
